Experimental data as given in paper PMC8467763, “The Central PXXP Motif Is Crucial for PMAP-23 Translocation across the Lipid Bilayer” (International Journal of Molecular Sciences, 2021).
Ends that are not written are not given here.

How the values were obtained:
Staphylococcus aureus = type: cell-based
Experimental: (§1) The antimicrobial activity of the peptides was tested against gram-positive Staphylococcus aureus and gram-negative Escherichia coli by a broth microdilution method, as described previously. Briefly, a colony of bacteria was incubated in culture medium (10 mL) and incubated at 37 °C for 14–18 h. After an aliquot (50 μL) of this culture was transferred to fresh culture medium (10 mL), each bacterial strain was grown to reach the mid-logarithmic phase. A total of 100 μL of bacteria (2 × 10^6 CFU/mL) were added to 96-well microtiter plates in the presence of serial dilutions of peptides. […] Measurements were repeated at least three times in triplicate.

Escherichia coli = type: cell-based
Experimental: as §1

Sequence	MIC S. aureus (Staphylococcus aureus)	MIC E. coli (Escherichia coli)
RIIDLLWRVRRAQKAKFVTVWVR [PMAP-PA]	8 to 16 µM	8 to 16 µM
RIIDLLWRVRRGQKGKFVTVWVR [PMAP-PG]	–	8 to 16 µM
RIIDLLWRVRRPQKPKFVTVWVR [PMAP-23]	2 to 4 µM	2 to 4 µM
